Results from ChEMBL document CHEMBL1136223, “Reversed hydroxamate-bearing thermolysin inhibitors mimic a high-energy intermediate along the enzyme-catalyzed proteolytic reaction pathway” (Bioorg Med Chem Lett, 2003).

Legend:
Thermolysin [1] = target: T1, Thermolysin (Bacillus thermoproteolyticus, UniProt P00800); assay: Inhibitory activity against thermolysin
T1 sequence (P00800 whole entry): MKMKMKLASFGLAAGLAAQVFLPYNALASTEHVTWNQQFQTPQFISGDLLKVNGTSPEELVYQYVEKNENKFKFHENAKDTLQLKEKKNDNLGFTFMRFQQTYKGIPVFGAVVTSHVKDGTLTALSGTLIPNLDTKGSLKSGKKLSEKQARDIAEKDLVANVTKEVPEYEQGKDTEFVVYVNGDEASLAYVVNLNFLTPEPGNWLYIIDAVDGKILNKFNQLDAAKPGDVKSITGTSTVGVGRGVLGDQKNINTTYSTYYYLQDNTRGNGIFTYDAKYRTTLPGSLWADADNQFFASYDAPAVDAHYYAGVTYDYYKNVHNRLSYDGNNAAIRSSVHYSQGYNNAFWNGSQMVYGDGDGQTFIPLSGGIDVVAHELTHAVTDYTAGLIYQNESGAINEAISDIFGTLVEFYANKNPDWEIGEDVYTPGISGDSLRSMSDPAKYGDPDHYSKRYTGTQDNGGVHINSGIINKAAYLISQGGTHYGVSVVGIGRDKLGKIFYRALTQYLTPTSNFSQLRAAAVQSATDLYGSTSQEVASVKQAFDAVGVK

Thermolysin [2] = target: T1, Thermolysin; assay: Inhibitory activity against thermolysin using N-[3-(2-furyl)acryloyl]-Gly-l-leucineamide (FA-Gly-l-Leu-NH2) as substrate
[3] = Ratio of Km to that of Kcat against thermolysin

| Structure (SMILES) | Ki (Thermolysin [1]) | Ki (Thermolysin [2]) | Km/Kcat [3] |
| --- | --- | --- | --- |
| CC(C)C[C@H](CN(O)C=O)C(=O)NC(=O)CN | 10.9 µM | 14.7 µM | 165 µM/s |
| CC(C)C[C@H](CN(O)C=O)C(N)=O | 20.6 µM | 52.8 µM | 196 µM/s |

The remaining compounds from weak to strong by Ki (Thermolysin [1]), led by results:

| Ki (Thermolysin [1]) | Ki (Thermolysin [2]) | Km/Kcat [3] | Structure (SMILES) |
| --- | --- | --- | --- |
| 16.6 µM | 383 µM | 3200 µM/s | CC(C)C[C@H](CN(O)C=O)C(=O)NC(=O)[C@@H](C)N |
| 10.6 µM | 2.49 µM | 13.6 µM/s | CC(C)C[C@H](CN(O)C=O)C(=O)NC(=O)[C@H](C)N |
| 2.4 µM | 1.84 µM | 20 µM/s | CC(C)C[C@H](CN(O)C=O)C(=O)NC(=O)[C@@H](N)Cc1ccccc1 |
